Results as given in paper PMC4742234, “Screening of Drug Metabolizing Enzymes for the Ginsenoside Compound K In Vitro: An Efficient Anti-Cancer Substance Originating from Panax Ginseng” (PLoS ONE, 2016).
Values joined by “and” are separate entries in the source; they are usually repeats but may differ in a detail not shown here. Identical values can stand only once.

Experiments:
Type in all cases: in vitro ADME
[1] = molecular target: T1, CYP2C9 (Homo sapiens, UniProt P11712); assay: Inhibition of CYP2C9 (tolbutamide 4-hydroxylation) by CK in HLMs; parameters: tissue Cypex Ltd. (U.K.); host or cells: pooled human liver microsomes
Description: The method was conducted according to our previous study with some modifications. The CYP isoform-specific probe reactions used were phenacetin O-deethylation (for CYP1A2), coumarin 7-hydroxylation (for CYP2A6), tolbutamide 4-hydroxylation (for CYP2C9), metoprolol α-hydroxylation (for CYP2D6), chlorzoxazone 6-hydroxylation (for CYP2E1),S-Mephenytoin 4-hydroxylation (for CYP2C19), and midazolam 1-hydroxylation (for CYP3A4). The kinetic study of CK was conducted with HLMs. A 0.2 mL incubation mixture that consisted of CK (as a substrate), the HLMs (0.5 mg/mL) or CYP isoforms (10 pmol), and 0.1 M sodium phosphate buffer (pH 7.4) was pre-warmed for 5 min at 37°C. The reaction was initiated by the addition of 1 mg/mL triphosphopyridine nucleotide (NADPH). All the reagents were dissolved in methanol, and the final solvent concentration in all incubations (including the controls) was 1%. The final incubations were performed in a shaking water bath (37°C) for 30 min. The reactions were stopped by adding 0.2 mL ice-cold acetonitrile, which contains irbesartan (114.9 ng/mL) as the internal standard. The samples were vortexed for 5 min. After centrifugation (12000×g for 10 min), the supernatants were transferred, and aliquots of 20 μL were injected into the HPLC-MS/MS system for analysis.
CK (10–100 μM) and a single CYP isoform-specific substrate (with a concentration similar to its corresponding Kmvalue) were used to determine the inhibitory effect of CK on specific CYP isoforms as described in detail previously. Substrates including phenacetin, coumarin, tolbutamide, metoprolol, chlorzoxazone, S-Mephenytoin, and midazolam were used at concentrations of 10, 5, 100, 7.5, 40, 100, and 5 μM, respectively. All incubation conditions were the same as mentioned above. The inhibitory effects on the CYP isoforms were investigated individually by incubating the HLMs in the absence or presence of CK. The incubation solution with the solvent that was used to dissolve CK was regarded as the negative control, and the solutions containing the specific inhibitors mentioned above were considered the positive controls.
Therefore, Dixon plots for the inhibition of CYP2C9 and CYP3A4 were determined by incubating the substrate probe at multiple concentrations with or without the test inhibitor with the HLMs and cofactors. The inhibition data obtained from the pilot experiments were used as a guide to generate the appropriate probe substrate and test inhibitor concentrations for the determination of the Ki values for each CYP isoform. The isoform-specific probe substrate concentrations used were 25–200 μM tolbutamide for CYP2C9 and 5–50 μM midazolam for CYP3A4. The CK concentrations used were 10–100 μM.
Therefore, we used S/V versus [I] plots to determine the Ki’ values for the inhibition of CYP2C9 and CYP3A4. When Ki>Ki’, the intersection was above the [I] axis in the plot of S/V against [I] and below it in the Dixon plot; the opposite was true if Ki<Ki’. In the special case where Ki = Ki’ (simple non-competitive inhibition), the intersections occurred on the [I] axis in both plots. The asymptotic cases of competitive and uncompetitive inhibition can be generated by inserting the conditions Ki’ to ∞ for competitive inhibition, or Ki to ∞ for uncompetitive inhibition.
As described in detail previously, to determine the major enzymes responsible for the CK metabolism in HLMs, the metabolic clearance rate of the incubation solution without any specific inhibitor for CK was considered as 100%. The effects of the specific inhibitors on the metabolic clearance rate of CK were evaluated with SPSS one-way analysis of variance (SPSS Inc., Chicago, IL, USA). P<0.05 was considered significant in all cases. The apparent kinetic parameters of CK (Km and Vmax) were determined by fitting the Michaelis–Menten equation using the GraphPad Prism Enzyme Kinetic 5 Demo software (GraphPad Co. Ltd, San Diego, CA, USA). […]

[2] = molecular target: T1, CYP2C9; assay: Effect of specific inhibitor sulfaphenazole on CK metabolism in HLMs; parameters: tissue Cypex Ltd. (U.K.); host or cells: pooled human liver microsomes; details: CK 50 μM, in the presence of sulfaphenazole 1 μM
Description: (§1) The method was conducted according to our previous study with some modifications. The CYP isoform-specific probe reactions used were phenacetin O-deethylation (for CYP1A2), coumarin 7-hydroxylation (for CYP2A6), tolbutamide 4-hydroxylation (for CYP2C9), metoprolol α-hydroxylation (for CYP2D6), chlorzoxazone 6-hydroxylation (for CYP2E1),S-Mephenytoin 4-hydroxylation (for CYP2C19), and midazolam 1-hydroxylation (for CYP3A4). The kinetic study of CK was conducted with HLMs. A 0.2 mL incubation mixture that consisted of CK (as a substrate), the HLMs (0.5 mg/mL) or CYP isoforms (10 pmol), and 0.1 M sodium phosphate buffer (pH 7.4) was pre-warmed for 5 min at 37°C. The reaction was initiated by the addition of 1 mg/mL triphosphopyridine nucleotide (NADPH). […]
(§2) To screen the specific CYP isoform responsible for the CK metabolism, we determined the inhibitory effect of specific inhibitors on the metabolism of CK in the HLMs as described in detail previously. […] The inhibitory effects of the above specific inhibitors on the metabolic clearance rate of CK were evaluated separately to screen the CYP isoforms responsible for the CK metabolism. The relative activity of the CYP isoforms was calculated by dividing the peak area of CK when incubated with the inhibitor by that of CK from the negative controls. […]

[3] = molecular target: T1, CYP2C9; assay: Metabolic clearance rate of CK with recombinant CYP2C9 under sulfaphenazole; parameters: purchased Cypex Ltd. (U.K.); details: recombinant CYP2C9, CK 50 μM, sulfaphenazole 1 μM
Description: as §1, §2

[4] = CYP2C9 in HLMs, sulfaphenazole values ref 15, 16

T1 sequence (P11712 whole entry, canonical isoform): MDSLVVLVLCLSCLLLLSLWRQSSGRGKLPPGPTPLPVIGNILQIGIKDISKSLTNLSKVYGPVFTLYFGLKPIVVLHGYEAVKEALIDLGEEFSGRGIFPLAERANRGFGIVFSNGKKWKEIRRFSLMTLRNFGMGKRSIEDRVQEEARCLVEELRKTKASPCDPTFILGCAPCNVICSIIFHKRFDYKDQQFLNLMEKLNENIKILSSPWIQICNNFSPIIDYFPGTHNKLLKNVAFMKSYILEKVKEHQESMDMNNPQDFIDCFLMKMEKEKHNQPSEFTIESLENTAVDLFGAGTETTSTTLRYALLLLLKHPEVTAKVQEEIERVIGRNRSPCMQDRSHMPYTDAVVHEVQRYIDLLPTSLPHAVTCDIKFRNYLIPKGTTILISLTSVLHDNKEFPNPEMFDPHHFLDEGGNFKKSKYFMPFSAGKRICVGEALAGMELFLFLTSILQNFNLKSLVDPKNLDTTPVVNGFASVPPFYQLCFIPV

CC(C)=CCC[C@](C)(OC1O[C@H](CO)[C@@H](O)[C@H](O)[C@H]1O)[C@H]1CC[C@]2(C)[C@@H]1[C@H](O)C[C@@H]1[C@@]3(C)CC[C@H](O)C(C)(C)[C@@H]3CC[C@]12C (stereo partly drawn) [CK, 20-O-β-(D-glucopyranosyl)-20(S)-protopanaxadiol]
IC50 of CK higher than that of sulfaphenazole [1, 4]: 11-53 fold
Ki of CK higher than that of sulfaphenazole [1, 4]: 49 fold
type of inhibition of CYP2C9 ([1]; HLMs, Dixon and S/V versus [I] plots): mixed type
IC50 ([1]; HLMs, tolbutamide 4-hydroxylation, tolbutamide 100 μM, CK 10–100 μM): 16 µM
Ki ([1]; HLMs, tolbutamide 25–200 μM, secondary plot of Lineweaver–Burk slopes): 14.9 µM
inhibitor potency class for CYP2C9 ([1]; classified by IC50 according to Kong et al): moderate (moderate, if IC50 20–100 μg/mL or 10–50 μM)
metabolic clearance rate (MCR) of CK, of that of the control [2]: 73.5±20.9% and 73.5%
MCR of CK, of that of the control [3]: 22.0%
